Laboratory results as given in the supplement of paper PMC4862054.

Assays:
Details in all cases: incubation time: 72 h
MDA-MB-468 [1] = experiment: normalised response (% of control), CellTiter-Glo; higher = more viable cells (100 = DMSO, 0 = benzethonium chloride kill control)
Method in brief: (§1)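 Plates were normalised with 0.1 % DMSO as 100 and a positive kill control as 0. Breast cancer cell lines in 20 µl suspension had been seeded into 384-well plates with compound at 5 concentrations in 10-fold steps over a compound-specific 10,000-fold range, incubated 72 h, and read for CellTox Green fluorescence (485/520 nm) followed by CellTiter-Glo luminescence. Each value is the normalised signal at a single concentration.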

MCF-10A = experiment: as above
Method in brief: as §1

HDQ-P1 [2] = experiment: as above
Method in brief: as §1

SK-BR-3 [3] = experiment: as above
Method in brief: as §1

Hs578T [4] = experiment: as above
Method in brief: as §1

CAL-85-1 [5] = experiment: as above
Method in brief: as §1

HCC1599 [6] = experiment: as above
Method in brief: as §1

DU-4475 [7] = experiment: as above
Method in brief: as §1

HCC1143 [8] = experiment: as above
Method in brief: as §1

MDA-MB-436 [9] = experiment: as above
Method in brief: as §1

BT-474 [10] = experiment: as above
Method in brief: as §1

HCC1937 [11] = experiment: as above
Method in brief: as §1

CAL-120 [12] = experiment: as above
Method in brief: as §1

CAL-51 [13] = experiment: as above
Method in brief: as §1

MDA-MB-231 [14] = experiment: as above
Method in brief: as §1

MDA-MB-453 [15] = experiment: as above
Method in brief: as §1

BT-549 [16] = experiment: as above
Method in brief: as §1

MFM-223 [17] = experiment: as above
Method in brief: as §1

CAL-148 [18] = experiment: as above
Method in brief: as §1

MDA-MB-468 [19] = experiment: normalised viability (% of control), CellTiter-Blue; higher = more viable cells (100 = DMSO, 0 = benzethonium chloride kill control)
Method: (§2)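 DSRT, CellTiter-Blue viability, 72 h incubation. Signal is normalised to DMSO and benzethonium chloride controls. Value is the normalised response at dose 1.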

HDQ-P1 [20] = experiment: as above
Method: as §2

SK-BR-3 [21] = experiment: as above
Method: as §2

Hs578T [22] = experiment: as above
Method: as §2

CAL-85-1 [23] = experiment: as above
Method: as §2

HCC1599 [24] = experiment: as above
Method: as §2

DU-4475 [25] = experiment: as above
Method: as §2

HCC1143 [26] = experiment: as above
Method: as §2

MDA-MB-436 [27] = experiment: as above
Method: as §2

BT-474 [28] = experiment: as above
Method: as §2

HCC1937 [29] = experiment: as above
Method: as §2

CAL-120 [30] = experiment: as above
Method: as §2

CAL-51 [31] = experiment: as above
Method: as §2

MDA-MB-231 [32] = experiment: as above
Method: as §2

MDA-MB-453 [33] = experiment: as above
Method: as §2

BT-549 [34] = experiment: as above
Method: as §2

MFM-223 [35] = experiment: as above
Method: as §2

CAL-148 [36] = experiment: as above
Method: as §2

Row | SMILES | normalised response (MDA-MB-468 [1]) [%] | normalised response (MCF-10A) [%] | normalised response (HDQ-P1 [2]) [%] | normalised response (SK-BR-3 [3]) [%] | normalised response (Hs578T [4]) [%] | normalised response (CAL-85-1 [5]) [%] | normalised response (HCC1599 [6]) [%] | normalised response (DU-4475 [7]) [%] | normalised response (HCC1143 [8]) [%] | normalised response (MDA-MB-436 [9]) [%] | normalised response (BT-474 [10]) [%] | normalised response (HCC1937 [11]) [%] | normalised response (CAL-120 [12]) [%] | normalised response (CAL-51 [13]) [%] | normalised response (MDA-MB-231 [14]) [%] | normalised response (MDA-MB-453 [15]) [%] | normalised response (BT-549 [16]) [%] | normalised response (MFM-223 [17]) [%] | normalised response (CAL-148 [18]) [%] | normalised viability (MDA-MB-468 [19]) [%] | normalised viability (HDQ-P1 [20]) [%] | normalised viability (SK-BR-3 [21]) [%] | normalised viability (Hs578T [22]) [%] | normalised viability (CAL-85-1 [23]) [%] | normalised viability (HCC1599 [24]) [%] | normalised viability (DU-4475 [25]) [%] | normalised viability (HCC1143 [26]) [%] | normalised viability (MDA-MB-436 [27]) [%] | normalised viability (BT-474 [28]) [%] | normalised viability (HCC1937 [29]) [%] | normalised viability (CAL-120 [30]) [%] | normalised viability (CAL-51 [31]) [%] | normalised viability (MDA-MB-231 [32]) [%] | normalised viability (MDA-MB-453 [33]) [%] | normalised viability (BT-549 [34]) [%] | normalised viability (MFM-223 [35]) [%] | normalised viability (CAL-148 [36]) [%]
1 | CS(=O)(=O)c1ccc(C(=O)Nc2ccc(Cl)c(-c3ccccn3)c2)c(Cl)c1 [Vismodegib] (1 nM) | 98.7 | 94 | 96.7 | 91.6 | 95.9 | 99.2 | 101 | 98.9 | 94.3 | 100 | 90.9 | 92.3 | 92.8 | 120 | 95.5 | 89.3 | 93.1 | 86.8 | 103 | 99.6 | 75.3 | 93.7 | 115 | 104 | 105 | 103 | 94.9 | 94.2 | 103 | 103 | 86.2 | 108 | 100 | 103 | 88.3 | 96 | 94.9
2 | COc1cccc2cc(-c3nc([C@H]4CC[C@H](C(=O)O)CC4)n4ncnc(N)c34)[nH]c12 [OSI-027] (1 nM) | 90.1 | 91.4 | 96.3 | 91.1 | 97.9 | 101 | 101 | 91.7 | 92.8 | 86.8 | 95.8 | 97.1 | 102 | 88 | 93.9 | 95.4 | 95.5 | 90.5 | 98.7 | 90.7 | 76.9 | 86.9 | 118 | 100 | 110 | 87.8 | 105 | 93.8 | 85.3 | 88.9 | 96.8 | 90.3 | 83.6 | 88.8 | 93.9 | 95.9 | 96.1
3 | CN(C)C/C=C/C(=O)Nc1cc2c(Nc3ccc(F)c(Cl)c3)ncnc2cc1O[C@H]1CCOC1 [Afatinib] (1 nM) | 109 | 92.7 | 98.4 | 98.9 | 96.5 | 108 | 104 | 109 | 106 | 105 | 97.5 | 97.2 | 94.4 | 116 | 97.7 | 112 | 96.9 | 97.8 | 90.3 | 107 | 74.3 | 89.2 | 102 | 82 | 84.5 | 96.4 | 83.8 | 88.4 | 85.9 | 85.4 | 69.7 | 109 | 92.4 | 101 | 111 | 93.2 | 106
4 | CN1CC[C@H](c2c(O)cc(O)c3c(=O)cc(-c4ccccc4Cl)oc23)[C@H](O)C1 [Alvocidib] (1 nM) | 106 | 95.2 | 94.9 | 112 | 98.1 | 110 | 94.2 | 104 | 96.5 | 97.9 | 92.2 | 103 | 102 | 80.2 | 103 | 115 | 106 | 98.2 | 104 | 113 | 79.7 | 97.4 | 73.7 | 83.5 | 99.6 | 101 | 78.5 | 94.3 | 92.3 | 96.4 | 75 | 102 | 98.1 | 95.8 | 104 | 88.3 | 104
